Target: T1, vitamin D binding protein (Homo sapiens, UniProt P02774)
T1 sequence (P02774 17-474): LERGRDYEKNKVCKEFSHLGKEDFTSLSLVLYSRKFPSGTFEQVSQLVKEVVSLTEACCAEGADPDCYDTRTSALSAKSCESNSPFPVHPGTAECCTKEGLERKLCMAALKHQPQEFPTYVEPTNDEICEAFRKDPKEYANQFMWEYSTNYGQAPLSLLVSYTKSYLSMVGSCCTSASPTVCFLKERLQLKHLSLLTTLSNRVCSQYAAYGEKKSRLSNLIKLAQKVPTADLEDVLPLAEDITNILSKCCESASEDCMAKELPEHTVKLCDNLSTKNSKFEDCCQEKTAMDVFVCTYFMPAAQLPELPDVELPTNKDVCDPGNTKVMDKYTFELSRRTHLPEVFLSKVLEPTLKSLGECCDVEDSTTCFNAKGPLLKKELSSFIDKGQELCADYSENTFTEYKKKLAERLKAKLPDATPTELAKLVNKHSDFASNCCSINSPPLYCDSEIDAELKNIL
Experiment: BIACORE assessment of release of vitamin D binding protein from immobilised biotinylated 25-hydroxyvitamin D3
Conditions: BIACORE streptavidin chip saturated with biotinylated 25-hydroxyvitamin D3 and vitamin D binding protein; release monitored for 3 min
From the text: For this assessment a streptavidin-coated BIACORE chip is used. This streptavidin-chip is then saturated with a biotinylated 25-hydroxyvitamin D3 and thereafter with vitamin D binding protein. […] The BIACORE system is used to assess whether a reagent considered to be a potential candidate for releasing vitamin D from vitamin D binding protein will be efficient in releasing of vitamin D binding protein to a vitamin D metabolite. A sensor chip coated with streptavidin (Sensor Chip SA, BIACORE AB, BR-1000-32) is used for immobilization of a biotinylated vitamin D metabolite of interest. The assessment is best performed by use of the vitamin D metabolite 25OH vitamin D3. The sensor chip is first incubated with a saturating concentration of biotinylated 25-hydroxyvitamin D3, Then the chip is loaded with a saturating amount of vitamin D binding protein. Then the vitamin D binding protein saturated chip is incubated with a sodium chloride solution one the one hand and a candidate vitamin D releasing reagent in various concentrations on the other hand. The release of vitamin D binding protein is monitored for 3 min. A candidate vitamin D releasing reagent causing the release of at least […] vitamin D binding protein in the above system is appropriate to meet the minimal requirements for a vitamin D releasing reagent used in the detection of a vitamin D metabolite in a sample of serum or plasma 25-hydroxyvitamin D3. Between each run the 25-hydroxyvitamin D3-coated SA-chip is regenerated by washing it with 10 mM Gly/HCl pH 1.7 for 1 min. As non-specific control a reference flow cell coated with biotin on the same chip was used. The data of the reference flow cell are subtracted from those of the biospecific flow cell. Thus specific data free of non-specific effects are obtained.

Concentration of releasing reagent required for release off >95% vitamin D binding protein from 25OH-vitamin D3 [% volume/volume]	Molecule
8	CCCCn1cc[n+](C)c1.F[B-](F)(F)F [BMI-TFB, 1-Butyl-3-methyl-imidazolium-tetrafluoroborate]
6	CCCC[n+]1ccc(C)cc1.F[B-](F)(F)F [BMP-TFB, 1-Butyl-4-methyl-pyridinium-tetrafluoroborate]
6	CCCCCC[n+]1ccccc1.[Cl-] [HP-Cl, 1-Hexylpyridinium-chloride]
3	CCCCCCCC[N+]1(C)CCCC1.[Cl-] [MOP-Cl, 1-Methyl-1-octyl-pyrrolidinium-chloride]
3	CCCCCCCC[n+]1ccccc1.[Cl-] [NOP-Cl, N-Octylpyridinium-chloride]

More lines, now with the values behind:

Molecule	Concentration of releasing reagent required for release off >95% vitamin D binding protein from 25OH-vitamin D3 [% volume/volume]
1-Butyl-3-methyl-imidazolium-octylsulfate [BMI-OSO4]	0.5
CCCC[n+]1cccc(C)c1.[Cl-] [BMP-Cl, 1-Butyl-3-methyl-pyridinium-chloride]	12
CCCC[n+]1cccc(C)c1.N#C[S-] [BMP-SCN, 1-Butyl-3-methyl-pyridinium-thiocyanate]	6

— patent US8003400B2, “Measurement of vitamin D” (Roche Diagnostics Operations, Inc., priority 2006, dated 2011)
